Among the data in US11446287B2, “Compounds and methods for EP300 or CBP modulation and indications therefor” (Opna Immuno-Oncology SA, priority 2019, dated 2022) are IC50 values, retold here.

A word on the IC50: it is the midpoint of a concentration-inhibition curve.

The test has as its target T1, Recombinant human BRD4 containing dual bromodomains (BRD4-BD12 (1-477)) (Homo sapiens, UniProt O60885).
T1 construct: Recombinant human BRD4 containing dual bromodomains (BRD4-BD12 (1-477)); made in house; host or cells: E. coli BL21-CodonPlus (DE3), modified pET vector
Description: BRD4 Alphascreen binding assay. The method, then: BRD4 Alphascreen Binding Assay
Binding of compounds of Formula (I) with BRD4 was assessed using Alphascreen binding assay. The inhibition of the interaction between BRD4 and its acetylated target protein was measured quantitatively using recombinant BRD4 protein, an acetylated Histone 4 peptide, and AlphaScreen™ technology. In absence of inhibition of the BRD4 protein bound to AlphaScreen™ nickel chelate acceptor beads can interact with the acetylated Histone 4 peptide which was immobilized by the AlphaScreen™ Streptavidin coated beads. This interaction brings donor and acceptor beads in proximity. The close proximity allows the singlet oxygen produced by laser excitation of the donor beads to reach the acceptor beads and generate a luminescence signal. BRD4 inhibitors result in a decrease in the proximity signal through an inhibition of the BRD4—acetylated peptide interaction.
Recombinant human BRD4 containing dual bromodomains (BRD4-BD12 (1-477)) was prepared and purified as described in protein expression and purification session. The peptide was human Histone H41-21K5AcK8AcK12AcK16Ac-Biotin (Anaspec CA, USA).
Protocol for BRD4 assay: All components are prepared in buffer composed of 50 mM HEPES pH 7.5, 50 mM NaCl, 0.01% BSA, 0.01% Triton X-100, 2 mM DTT. Test compounds and DMSO vehicle are diluted 1:50 in buffer and a 4 μL volume was transferred to an Alphaplate. 5.5 μL of Bromodomain protein and 5.5 μL of peptide are added to wells containing 4 μL of various concentrations of test compounds of Formula (I) or DMSO vehicle in an Alphaplate (PerkinElmer GA, USA) and incubated for 1 hour at room temperature. 5 μL donor and acceptor bead mixture was then added with final concentrations of 7.5 μg/ml. 30 minutes after bead addition, Alpha signal was read on the Envision spectrometer (λEx 680 nm, λEm 520-620 nm). Final concentrations of bromodomain proteins and peptide are as shown below.
All data were normalized to the mean of 16 high and 16 low control wells on each plate. A four parameter curve fit of the following formula was then applied: Y=A+((B−A)/(1+((C/x)^D))) Where ‘A’ is the minimum, ‘B’ is the maximum, ‘C’ is the IC50 and ‘D’ is the Hill slope. Protein Expression and Purification
Recombinant human BRD4 containing dual bromodomains (BRD4-BD12 (1-477)) was expressed in E. coli cells (in a modified pET vector) with an N-terminal six-His tag and purified using a combination of both IMAC (Ni-affinity) and size exclusion chromatography steps.
Recombinant BRD4 was expressed using the E. coli strain BL21-CodonPlus (DE3) (Agilent Technologies CA, USA). Cells were grown in Terrific Broth (TB) media to an OD600 of 2.0 at 37° C. at which temperature was reduced to 18° C., protein was induced with 0.1 mM isopropyl-β-D-thiogalactopyranoside (“IPTG”) for 12-18 hours and harvested by centrifugation at 8000×g for 20 minutes. Cells were re-suspended in 40 mM Tris-HCl pH 8.0, 0.5 M NaCl, 25 mM Imidazole, 5% glycerol, 1/200 vol. Protease Inhibitor Cocktail Set III (Calbiochem), 5 mM beta-mercaptoethanol (“BME”), 0.5 mg/mL Lysozyme, and 0.5 mg/mL DNaseI, incubated on ice for 30 minutes and lysed with a cell disruptor (MicroFluidics MA, USA). The lysate was clarified by centrifugation at 20,000×g for 2 hours. The protein was captured with Ni-NTA resin (Life Technologies, USA). Contaminating proteins were washed off with 40 mM Tris-HCl pH 8.0, 0.5 M NaCl, 25 mM Imidazole, 5% glycerol, and 5 mM BME. Following 3× wash steps, protein was eluted step wise into wash buffer containing 50, 100, 150, 500 mM Imidazole. The protein was further purified using Gel Filtration column 16/60 Superdex 200 (GE Biosciences NJ, USA) in 10 mM HEPES pH 8.0, 150 mM NaCl, and 5 mM DTT. Glycerol was added to a final concentration of 12% and the protein was aliquoted and flash-frozen in liquid Nitrogen.
A general note: Alpha assays give light when donor and acceptor beads are brought close together.

The structures appear in SMILES notation.

`CCOc1cc(C(=O)O)ccc1-c1cn([C@@H](C)c2ccccn2)c2ncc(-c3c(C)noc3C)cc12` [P-0114, (S)-4-(5-(3,5-dimethylisoxazol-4-yl)-1-(1-(pyridin-2-yl)ethyl)-1H-pyrrolo[2,3-b]pyridin-3-yl)-3-ethoxybenzoic acid]: the IC50 was in the range of 8 to 1000 µM.

Consider `Cc1noc(C)c1-c1cnc2c(c1)c(-c1ccc(C(=O)O)cc1OCC(F)(F)F)cn2[C@@H](C)c1ccccn1` [P-0115, (S)-4-(5-(3,5-dimethylisoxazol-4-yl)-1-(1-(pyridin-2-yl)ethyl)-1H-pyrrolo[2,3-b]pyridin-3-yl)-3-(2,2,2-trifluoroethoxy)benzoic acid], for which the 50% inhibitory concentration (IC50) lay in the range of 8 to 1000 µM.

With `Cc1noc(C)c1-c1cnc2c(c1)c(-c1ccc(C(=O)O)cc1C(F)(F)F)cn2[C@@H](C)c1ccccn1` [P-0116, (S)-4-(5-(3,5-dimethylisoxazol-4-yl)-1-(1-(pyridin-2-yl)ethyl)-1H-pyrrolo[2,3-b]pyridin-3-yl)-3-(trifluoromethyl)benzoic acid], the IC50 lay in the range of 1 to 8 µM.

On to `CCCOc1cc(C(=O)O)cc(OCCC)c1-c1cn([C@@H](C)c2ccccn2)c2ncc(-c3c(C)noc3C)cc12` [P-0117, (S)-4-(5-(3,5-dimethylisoxazol-4-yl)-1-(1-(pyridin-2-yl)ethyl)-1H-pyrrolo[2,3-b]pyridin-3-yl)-3,5-dipropoxybenzoic acid], for which the IC50 lay within 1 to 8 µM.

For the compound `Cc1noc(C)c1-c1cnc2c(c1)c(-c1c(OC(C)C)cc(C(=O)O)cc1OC(C)C)cn2[C@@H](C)c1ccccn1` [P-0118, (S)-4-(5-(3,5-dimethylisoxazol-4-yl)-1-(1-(pyridin-2-yl)ethyl)-1H-pyrrolo[2,3-b]pyridin-3-yl)-3,5-diisopropoxybenzoic acid], the IC50 was 8 to 1000 µM.

With `COc1cc(C(=O)O)cc(OC)c1-c1cn(C(C)c2ccccc2)c2cc(-c3c(C)noc3C)cnc12` (centres unmarked) [P-0119, 4-(6-(3,5-dimethylisoxazol-4-yl)-1-(1-phenylethyl)-1H-pyrrolo[3,2-b]pyridin-3-yl)-3,5-dimethoxybenzoic acid], the half-inhibitory concentration (IC50) fell in the range of 1 to 8 µM.

With `Cc1noc(C)c1-c1cnc2c(-c3ccccc3C(=O)O)cn(C(C)c3ccccc3)c2c1` (centres unmarked) [P-0120, 2-(6-(3,5-dimethylisoxazol-4-yl)-1-(1-phenylethyl)-1H-pyrrolo[3,2-b]pyridin-3-yl)benzoic acid], the IC50 lay in the range of 1 to 8 µM.

With `Cc1noc(C)c1-c1cnc2c(C(=O)C3CCC3)cn(-c3c(Cl)cc(C(=O)O)cc3Cl)c2c1` [P-0121, 3,5-dichloro-4-(3-(cyclobutanecarbonyl)-6-(3,5-dimethylisoxazol-4-yl)-1H-pyrrolo[3,2-b]pyridin-1-yl)benzoic acid], the IC50 was in the range of 1 to 8 µM.

On to `Cc1noc(C)c1-c1cnc2c(c1)c(-c1cccc(C(=O)O)n1)cn2C(C)c1ccccn1` (centres unmarked) [P-0122, 6-(5-(3,5-dimethylisoxazol-4-yl)-1-(1-(pyridin-2-yl)ethyl)-1H-pyrrolo[2,3-b]pyridin-3-yl)picolinic acid], for which the half-inhibitory concentration (IC50) is 8 to 1000 µM.

With `Cc1noc(C)c1-c1cnc2c(c1)c(-c1ccc(C(=O)O)cn1)cn2C(C)c1ccccn1` (centres unmarked) [P-0123, 6-(5-(3,5-dimethylisoxazol-4-yl)-1-(1-(pyridin-2-yl)ethyl)-1H-pyrrolo[2,3-b]pyridin-3-yl)nicotinic acid], the IC50 is 8 to 1000 µM.

As to `Cc1noc(C)c1-c1cnc2c(c1)c(-c1cc(C(=O)O)ccn1)cn2C(C)c1ccccn1` (centres unmarked) [P-0124, 2-(5-(3,5-dimethylisoxazol-4-yl)-1-(1-(pyridin-2-yl)ethyl)-1H-pyrrolo[2,3-b]pyridin-3-yl)isonicotinic acid], the IC50 lay within 8 to 1000 µM.

Consider `Cc1noc(C)c1-c1cnc2c(c1)c(-c1ccc(F)c(C(=O)O)c1F)cn2[C@@H](C)c1ccccn1` [P-0125, (S)-3-(5-(3,5-dimethylisoxazol-4-yl)-1-(1-(pyridin-2-yl)ethyl)-1H-pyrrolo[2,3-b]pyridin-3-yl)-2,6-difluorobenzoic acid], for which the concentration for half-maximal inhibition (IC50) was 8 to 1000 µM.

For `Cc1noc(C)c1-c1cnc2c(c1)c(-c1ccnc(C(=O)O)n1)cn2C(C)c1ccccn1` (centres unmarked) [P-0126, 4-(5-(3,5-dimethylisoxazol-4-yl)-1-(1-(pyridin-2-yl)ethyl)-1H-pyrrolo[2,3-b]pyridin-3-yl)pyrimidine-2-carboxylic acid], the IC50 fell in the range of 8 to 1000 µM.

On to `CCCOc1cc(C(=O)O)cc(OCCC)c1-n1cc(CC2CCC2)c2ncc(-c3c(C)noc3C)cc21` [P-0127, 4-(3-(cyclobutylmethyl)-6-(3,5-dimethylisoxazol-4-yl)-1H-pyrrolo[3,2-b]pyridin-1-yl)-3,5-dipropoxybenzoic acid], for which the IC50 is 8 to 1000 µM.

For the compound `Cc1noc(C)c1-c1cnc2c(Cc3cccc(Cl)c3)cn(-c3c(Cl)cc(C(=O)O)cc3Cl)c2c1` [P-0128, 3,5-dichloro-4-(3-(3-chlorobenzyl)-6-(3,5-dimethylisoxazol-4-yl)-1H-pyrrolo[3,2-b]pyridin-1-yl)benzoic acid], the IC50 was in the range of 1 to 8 µM.

As to `Cc1noc(C)c1-c1cnc2c(C(=O)c3cccc(OC(F)F)c3)cn(-c3c(Cl)cc(C(=O)O)cc3Cl)c2c1` [P-0129, 3,5-dichloro-4-(3-(3-(difluoromethoxy)benzoyl)-6-(3,5-dimethylisoxazol-4-yl)-1H-pyrrolo[3,2-b]pyridin-1-yl)benzoic acid], the IC50 lay within 1 to 8 µM.

For `Cc1noc(C)c1-c1cnc2c(CC3CCC3)cn(-c3ccc([N+](=O)[O-])cc3F)c2c1` [P-0130, 4-(3-(cyclobutylmethyl)-1-(2-fluoro-4-nitrophenyl)-1H-pyrrolo[3,2-b]pyridin-6-yl)-3,5-dimethylisoxazole], the IC50 fell in the range of 8 to 1000 µM.

For `Cc1noc(C)c1-c1cnc2c(Cc3ccccc3Cl)cn(-c3c(Cl)cc(C(=O)O)cc3Cl)c2c1` [P-0131, 3,5-dichloro-4-(3-(2-chlorobenzyl)-6-(3,5-dimethylisoxazol-4-yl)-1H-pyrrolo[3,2-b]pyridin-1-yl)benzoic acid], the 50% inhibitory concentration (IC50) fell in the range of 1 to 8 µM.

Consider `Cc1noc(C)c1-c1cnc2c(Cc3cccc(OCc4ccccc4)c3)cn(-c3c(Cl)cc(C(=O)O)cc3Cl)c2c1` [P-0132, 4-(3-(3-(benzyloxy)benzyl)-6-(3,5-dimethylisoxazol-4-yl)-1H-pyrrolo[3,2-b]pyridin-1-yl)-3,5-dichlorobenzoic acid], for which the IC50 is 8 to 1000 µM.

As for `Cc1noc(C)c1-c1cnc2c(C(=O)c3cccc(OCc4ccccc4)c3)cn(-c3c(Cl)cc(C(=O)O)cc3Cl)c2c1` [P-0133, 4-(3-(3-(benzyloxy)benzoyl)-6-(3,5-dimethylisoxazol-4-yl)-1H-pyrrolo[3,2-b]pyridin-1-yl)-3,5-dichlorobenzoic acid], the IC50 fell in the range of 1 to 8 µM.

For the compound `COc1ccc(-n2cc(CC3CCC3)c3ncc(-c4c(C)noc4C)cc32)cn1` [P-0134, 4-(3-(cyclobutylmethyl)-1-(6-methoxypyridin-3-yl)-1H-pyrrolo[3,2-b]pyridin-6-yl)-3,5-dimethylisoxazole], the IC50 was in the range of 8 to 1000 µM.

In the case of `COc1cc(C(=O)O)cc(OCc2ccccc2)c1-c1cn([C@@H](C)c2ccccn2)c2ncc(-c3c(C)noc3C)cc12` [P-0135, (S)-3-(benzyloxy)-4-(5-(3,5-dimethylisoxazol-4-yl)-1-(1-(pyridin-2-yl)ethyl)-1H-pyrrolo[2,3-b]pyridin-3-yl)-5-methoxybenzoic acid], the IC50 is 8 to 1000 µM.

For the compound `COc1c(C(=O)O)cccc1-c1cn(C(C)c2ccccc2)c2cc(-c3c(C)noc3C)cnc12` (centres unmarked) [P-0136, 3-(6-(3,5-dimethylisoxazol-4-yl)-1-(1-phenylethyl)-1H-pyrrolo[3,2-b]pyridin-3-yl)-2-methoxybenzoic acid], the IC50 is 0.0001 to 1 µM.
